Experimental findings from PubChem BioAssay AID2658 (Sanford-Burnham Center for Chemical Genomics, 2010) are described below.

Activity calls are given as the source filed them. How the calls were made is not given here.

The term IC50 denotes the concentration needed to halve the response being measured.

Sequence of Ubiquitin-conjugating enzyme E2 N (Homo sapiens) (P61088 whole entry, looked up): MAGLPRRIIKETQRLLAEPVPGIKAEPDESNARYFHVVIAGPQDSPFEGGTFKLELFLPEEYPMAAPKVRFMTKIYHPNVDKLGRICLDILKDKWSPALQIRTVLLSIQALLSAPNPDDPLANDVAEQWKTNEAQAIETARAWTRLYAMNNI

This test has as its target Ubiquitin-conjugating enzyme E2 N (Homo sapiens) (UniProt P61088). The experiment in a line: Ubc13/Uev1a ubiquitination inhibitors, SAR follow-up, selectivity assay, biochemical, TR-FRET (AID 2658). Particulars: Ubc13/Uev1a polyubiquitination, in vitro.
Turning to `Cc1ccc(NC(=O)Cn2c(O)c(N=NC(=O)c3cc4ccccc4cc3O)c3ccccc32)cc1`, the IC50 was > 100 µM (inactive).
Regarding `CCN(CC)C(=O)COC(=O)c1cc(-c2ccco2)nc2ccccc12`, the IC50 is > 100 µM (inactive).
For `O=C(O)c1ccc(C2Nc3ccc(F)cc3C3C=CCC32)cc1` (configuration not stated) the value was > 100 µM (inactive); for `O=C(COC(=O)c1cc(-c2ccco2)nc2ccccc12)NCc1ccccc1`, > 100 µM (inactive).
`COc1cc(-c2n[nH]c(=S)n2/N=C/c2cccn2C)cc(OC)c1OC`: the IC50 is > 100 µM (inactive).
Turning to `Cc1ccc(S(=O)(=O)N(C)C)cc1NC(=O)c1cc(-c2ccco2)nc2ccccc12`, the IC50 is > 100 µM (inactive).
Turning to `CCCCn1c(NS(=O)(=O)c2ccccc2)c(S(=O)(=O)c2ccc(C)cc2)c2nc3ccccc3nc21`, the IC50 is > 100 µM (inactive).
Take `COc1ccc(CNC(=O)COC(=O)c2cc(-c3ccco3)nc3ccccc23)cc1`: the IC50 was 34.6 µM.
As for `COc1ccc(NC(=O)c2cc(-c3ccco3)nc3ccccc23)cc1S(=O)(=O)N1CCOCC1`, the IC50 was 53.4 µM.
For the molecule `Cc1ccc(Nc2cc3ccccc3c(=O)[nH]2)cc1`, the IC50 is > 100 µM (inactive).
`S=c1[nH]nc(-c2cc(-c3ccccc3)n[nH]2)n1N=Cc1ccc(Br)s1`: the IC50 is > 100 µM (inactive).
In the case of `O=[N+]([O-])c1ccc2[nH]c(O)c(N=NC(=S)Nc3cccnc3)c2c1`, the IC50 is > 100 µM (inactive).
For `Cc1ccsc1C=Nc1ccccc1O` the value was > 100 µM (inactive).
For `COc1ccc(CNC(=O)C(C)OC(=O)c2cc(-c3ccco3)nc3ccccc23)cc1` (configuration not stated), the IC50 is 83 µM.
As for `O=C(O)c1ccc(NS(=O)(=O)c2ccc3c(c2)C2C=CCC2C(c2ccccc2F)N3)cc1` (configuration not stated), the IC50 is > 100 µM (inactive).
Then `CCCCn1c(NC(=O)c2ccc(Br)o2)c(S(=O)(=O)c2ccccc2)c2nc3ccccc3nc21`, with > 100 µM (inactive); and `O=c1[nH]c(Nc2ccccc2)cc2ccccc12`, with > 100 µM (inactive).
Then `C/C(=N\OCc1nc2ccccc2c(=O)n1/N=C/c1cc(Br)ccc1O)c1ccccc1`, with > 100 µM (inactive); and `CCCCn1c(NC(=O)c2ccccc2Cl)c(C#N)c2nc3ccccc3nc21`, with > 100 µM (inactive); and `COc1ccccc1COC(=O)COC(=O)c1cc(-c2ccco2)nc2ccccc12`, with 68.2 µM.
Then `COc1ccc(CNC(=O)COC(=O)c2cc(-c3cccs3)nc3ccccc23)cc1`, with 33.1 µM.
Consider `COc1ccccc1CNC(=O)COC(=O)c1cc(-c2cccs2)nc2ccccc12`, for which the IC50 was 82.5 µM.
For `COc1ccc(CNC(=O)COC(=O)c2cc(-c3ccc(C)o3)nc3ccccc23)cc1` the value was 86.6 µM; for `CC(=O)NC1C(=O)N(CCN2CCOCC2)c2ccc(F)cc21` (configuration not stated), > 100 µM (inactive); for `Nc1ccc2c(c1)C1C=CCC1C(c1ccccc1)N2` (configuration not stated), > 100 µM (inactive).
Turning to `Cc1ccc(O)c(N=Cc2ccc(C)s2)c1`, the IC50 is > 100 µM (inactive).
Regarding `O=C(O)c1ccc2c(c1)C1C=CCC1C(c1ccccc1)N2` (configuration not stated), the IC50 is > 100 µM (inactive).
Regarding `CCN(CC)S(=O)(=O)c1ccc(O)c(NC(=O)c2cc(-c3cc(OC)c(OC)c(OC)c3)nc3ccccc23)c1`, the IC50 is > 100 µM (inactive).
In the case of `CCN(CC)CCNC(=O)c1cc(-c2ccco2)nc2ccccc12`, the IC50 was > 100 µM (inactive).
As for `O=C(OCC(=O)N1CCN(C(=O)c2ccco2)CC1)c1cc(-c2ccco2)nc2ccccc12`, the IC50 was 93.1 µM.
For the molecule `O=C(N=Nc1c(O)[nH]c2ccc([N+](=O)[O-])cc12)c1ccccc1Cl`, the IC50 is > 100 µM (inactive).
With `COc1ccc(CNC(=O)COC(=O)c2cc(-c3ccco3)nc3ccccc23)cc1OC`, the IC50 is > 100 µM (inactive).
For `S=c1[nH]nc(-c2cc(-c3ccccc3)n[nH]2)n1N=Cc1cccc(Cl)c1` the value was > 100 µM (inactive); for `C=CCn1c(NS(=O)(=O)c2ccccc2)c(S(=O)(=O)c2ccc(C)cc2)c2nc3ccccc3nc21`, > 100 µM (inactive); for `COc1ccc(C=NNc2cc(N3CCCC3)nc(N3CCCC3)n2)cc1`, 53.8 µM.
Consider `CC(NC(=O)COC(=O)c1cc(-c2ccco2)nc2ccccc12)c1ccc(F)cc1` (configuration not stated), for which the IC50 was 72.5 µM.
For `Cc1ccc(N=Cc2sccc2C)cc1C` the value was > 100 µM (inactive); for `Cc1ccccc1CNC(=O)COC(=O)c1cc(-c2ccco2)nc2ccccc12`, 81.1 µM.
Regarding `COc1ccc(CNC(=O)CCOC(=O)c2cc(-c3ccco3)nc3ccccc23)cc1`, the IC50 is > 100 µM (inactive).
For `O=C(NNc1cc(N2CCCC2)nc(N2CCCC2)n1)c1ccc([N+](=O)[O-])cc1`, the IC50 was > 100 µM (inactive).
For `COc1ccc(CNC(=O)COC(=O)c2cc(-c3ccco3)nc3ccccc23)c(OC)c1` the value was > 100 µM (inactive).
Consider `C=CCn1c(NC(=O)c2ccccc2Cl)c(C#N)c2nc3ccccc3nc21`, for which the IC50 is > 100 µM (inactive).
Then `Cc1[nH][nH]c(=O)c1C(c1ccc(-c2ccc(F)cc2)o1)c1c(C)[nH][nH]c1=O`, with > 100 µM (inactive); and `COC(=O)c1ccc(CNC(=O)COC(=O)c2cc(-c3ccco3)nc3ccccc23)cc1`, with > 100 µM (inactive).
With `S=c1[nH]nc(-c2cc(-c3ccccc3)n[nH]2)n1N=Cc1ccccc1`, the IC50 is > 100 µM (inactive).
As for `O=C(COC(=O)c1cc(-c2ccco2)nc2ccccc12)NCc1ccc(F)cc1`, the IC50 was 72.7 µM.
For `CCOc1cc(C2c3c(oc4ccccc4c3=O)C(=O)N2c2nccs2)ccc1O` (configuration not stated) the value was > 100 µM (inactive).
